Results taken from article PMC6315548, “Cardiac Targeting Peptide, a Novel Cardiac Vector: Studies in Bio-Distribution, Imaging Application, and Mechanism of Transduction” (Biomolecules, 2018).
Values belong to the compound of their own block, whether it stands above or below them.

Legend:
transferrin receptor = biological target: T1, transferrin receptor (Rattus norvegicus, UniProt Q99376); experiment: LRC-TriCEPs ligand-receptor capture on H9C2 cells, mass spectrometry (transferrin positive control); type: binding; conditions: TriCEPS-transferrin conjugate on H9C2 cells; triplicate
T1 construct: endogenous in cells; host or cells: H9C2 rat cardiomyoblast cells
T1 sequence (Q99376 whole entry): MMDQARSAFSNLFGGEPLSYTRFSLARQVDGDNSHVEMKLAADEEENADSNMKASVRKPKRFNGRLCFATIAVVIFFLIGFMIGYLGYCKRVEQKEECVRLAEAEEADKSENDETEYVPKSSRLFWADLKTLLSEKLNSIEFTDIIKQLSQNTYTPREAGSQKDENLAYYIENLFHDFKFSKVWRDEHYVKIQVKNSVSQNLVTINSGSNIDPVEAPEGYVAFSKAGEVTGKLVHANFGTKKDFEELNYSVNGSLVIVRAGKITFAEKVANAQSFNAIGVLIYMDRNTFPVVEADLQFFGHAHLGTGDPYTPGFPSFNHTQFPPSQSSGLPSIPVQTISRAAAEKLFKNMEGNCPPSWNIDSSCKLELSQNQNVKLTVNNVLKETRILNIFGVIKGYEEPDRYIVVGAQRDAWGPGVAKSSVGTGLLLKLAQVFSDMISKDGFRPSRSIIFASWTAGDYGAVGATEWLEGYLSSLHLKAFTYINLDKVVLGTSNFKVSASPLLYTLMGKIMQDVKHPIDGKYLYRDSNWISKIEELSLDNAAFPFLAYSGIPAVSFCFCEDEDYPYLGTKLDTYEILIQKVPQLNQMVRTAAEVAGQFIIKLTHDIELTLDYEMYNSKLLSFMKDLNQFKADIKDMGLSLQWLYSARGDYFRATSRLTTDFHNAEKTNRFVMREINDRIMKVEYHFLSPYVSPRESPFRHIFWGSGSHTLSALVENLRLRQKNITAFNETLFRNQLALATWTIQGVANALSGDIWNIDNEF
Text: To identify a possible binding partner for CTP, we utilized LRC-TriCEPs technology a service provided by Dualsystems Biotech (Zurich, Switzerland). This methodology relies on TriCEPs™, a trifunctional chemoproteomics reagent, containing (1) a N-hydroxysuccinimide (NHS) ester for attachment to the ligand, (2) a protected hydrazine function for capturing the interacting receptor, and (3) a function for the purification of the ligand-receptor complex. Rat cardiomyoblast cell line H9C2 cells were grown in Dulbecco’s Modified Eagle’s Medium: Nutrient Mixture F-12 (DMEM/F12) (Gibco, Gaithersburg, MD, USA; cat #11039) medium supplemented with 10% fetal bovine serum and maintained at ≤70% confluence. A pretest was performed to identify the binding conditions of the TriCEPS-CTP conjugate on H9C2 cells at varying temperatures, times of incubation, and pH, with successful labeling being analyzed by fluorescence-activated cell sorting (FACs). The LRC-TriCEPS experiment was performed with TriCEP-CTP, TriCEPS-transferrin, and TriCEPS-glycine conjugates, each in triplicate. After the incubation period, cells were lazed and purified using solid-state chromatography, and identified using mass spectrometry. […]

beating neonatal CMCs = experiment: Uptake of dual-labeled CTP by beating neonatal cardiomyocytes (confocal microscopy); type: cell-based, mouse; conditions: Digoxin 100 nM; 20 mM K+; dual-labeled CTP 25 μM; n = 3; p-value < 0.001
Description: To further study the CTP’s mechanism of transduction, CMCs were isolated from 1–3-day old mouse pups using published protocols. Beating CMCs were incubated with the dual-labeled CTP (25 μM) under normokalemic (5 mM) and hyperkalemic (20 mM) conditions. […] The degree of transduction of these cells was quantified using confocal microscopy. […] Rhodamine with an ester link was used as a negative control.

[1] = tested on: human iPSC-derived beating cardiomyocytes (CMCs); experiment: Transduction of human iPSC-derived cardiomyocytes (confocal imaging); type: cell-based; conditions: 10 μM, 30 min, 37 °C; washed 3x with PBS; confocal microscopy; Supplemental Figure 5
Description: All protocols involving human tissue samples were approved by the University of Pittsburgh Institutional Review Board (No. PRO09090021). […] After the incubation period, cells were washed, and live confocal imaging was performed immediately.

wild-type CD1 mice = experiment: Cardiac targeting peptide imaging studies (microSPECT/CT and dynamic planar imaging); type: in vivo, mouse; conditions: 1-5 mCi injected; dual modality microSPECT/CT
Description: Cardiac targeting peptide was synthesized as detailed above, with HYNIC conjugated to the N-terminus and labeled with ^99mTc in a manner that was analogous to that described previously. The desired ^99mTc-HYNIC-CTP was purified from the crude reaction mixture using solid-phase extraction methods. The radiochemical purity of the final product was determined using reverse-phase HPLC methods.
Wild-type, 6–8 week old, CD1 mice (~25 g) were injected with 1–5 mCi of ^99mTc Sestamibi or ^99mTc-HYNIC-CTP, and was imaging performed immediately post-injection and at various time points using a Siemens Inveon dual-modality single photon emission computerized tomography/computerized tomography (SPECT/CT) with 5-MWB-1.0 collimators (Siemens Corporation, Washington, DC, USA). The images were resliced for a coronal view and they were Z-stack summed. Analysis of the distribution of the radioisotope was performed using ImageJ software. Measurements were taken by selecting a region of interest at the 0 h time point, applying the same region at different time points for dynamic time course studies. All counts were corrected for the radioactive decay of ^99mTc. For a comparison of dynamic planar images, the highest count in each organ (heart, kidney, and bladder) was set at 100%, and the counts at other time-points plotted as a percentage of that count.

fold increase of transferrin receptor in the positive control over CTP (transferrin receptor): ~5 fold
Compound: transferrin: positive control ligand in the LRC-TriCEPS experiment

Compound: C[C@H]1O[C@@H](O[C@H]2[C@@H](O)C[C@H](O[C@H]3[C@@H](O)C[C@H](O[C@H]4CC[C@@]5(C)[C@H](CC[C@@H]6[C@@H]5C[C@@H](O)[C@]5(C)[C@@H](C7=CC(=O)OC7)CC[C@]65O)C4)O[C@@H]3C)O[C@@H]2C)C[C@H](O)[C@@H]1O [Digoxin]
effect of pre-incubation on the hyperkalemia-induced increase in CTP uptake (beating neonatal CMCs): significantly abrogated

Compound: H-STLMKFCYVEQN-OH [RAN]
uptake by human iPSC-derived CMCs [1]: some background binding to the gel matrix

uptake by the heart (SPECT/CT) (wild-type CD1 mice): cardiac uptake | uptake in the liver or gut (for Sestamibi also kidneys) (wild-type CD1 mice): significant uptake
Compound: [C-]#[N+]CC(C)(C)OC.[C-]#[N+]CC(C)(C)OC.[C-]#[N+]CC(C)(C)OC.[C-]#[N+]CC(C)(C)OC.[C-]#[N+]CC(C)(C)OC.[C-]#[N+]CC(C)(C)OC.[Tc] [^99mTc Sestamibi]
